US10105357B2, “Indication of antibiotic drugs for preparation of cancer inhibition pharmaceutical composition” (LAUNX BIOMEDICAL CO., LTD., priority 2014, dated 2018)
Counter-ions that a name gives are not always drawn. Like-named read-outs stand apart in the source and are kept apart here.

How the values were obtained:
Format in all cases: cell-based, human
[1] = system: PC3 (p53−) (Prostate Adenocarcinoma); test: Cell viability analysis, prostate cancer PC3; conditions: for viability at 10 µM: Homo sapiens
[2] = system: A375 (Amelanotic Melanoma); test: Cell viability analysis, skin cancer A375; conditions: for viability at 10 µM: Homo sapiens
cancer cell lines = test: Cell viability analysis (WST-1) on cancer cell lines; conditions: drug 10 μM, 72 hours, WST-1; Table 3
[3] = system: HI650 (Lung Adenocarcinoma); test: Cell viability analysis, lung cancer HI650; conditions: for viability at 10 µM: Homo sapiens
[4] = system: LoVo (Colorectal Adenocarcinoma); test: Cell viability analysis, colon cancer LoVo; conditions: Homo sapiens, LoVo, 72 h, read-out: cell viability (survival rate), LoVo, drug 10 μM, 72 hours, WST-1, OD450 nm
[5] = system: HL-60 (Acute Promyelocytic Leukemia); test: Cell viability analysis, leukemia HL-60; conditions: for viability at 10 µM: Homo sapiens
[6] = system: MCF7 (Mammary Gland, Adenocarcinoma); test: Cell viability analysis, breast cancer MCF7; conditions: Homo sapiens, MCF7, 72 h
[7] = system: TSGH-8301 (Urinary Bladder Carcinoma); test: Cell viability analysis, bladder cancer TSGH-8301; conditions: for viability at 10 µM: Homo sapiens
[8] = system: HeLa (Cervix Adenocarcinoma); test: Cell viability analysis, cervical cancer HeLa; conditions: Homo sapiens, HeLa
[9] = system: A549 (Lung Adenocarcinoma); test: Cell viability analysis, lung cancer A549; conditions: for viability at 10 µM: Homo sapiens
[10] = system: AGS (Gastric Adenocarcinoma); test: Cell viability analysis, gastric cancer AGS; conditions: for viability at 10 µM: Homo sapiens
[11] = system: HepG2 (Hepatocellular Carcinoma); test: Cell viability analysis, hepatic cancer HepG2; conditions: for viability at 10 µM: Homo sapiens
[12] = system: MKN-45 (Gastric Adenocarcinoma); test: Cell viability analysis, gastric cancer MKN-45; conditions: for viability at 10 µM: Homo sapiens
[13] = 72 h, read-out: cell viability (survival rate), PC3, drug 10 μM, 72 hours, WST-1, OD450 nm
[14] = A-375, 72 h, read-out: cell viability (survival rate), A375, drug 10 μM, 72 hours, WST-1, OD450 nm
[15] = NCI-H1650, 72 h, read-out: cell viability (survival rate), H1650, drug 10 μM, 72 hours, WST-1, OD450 nm
[16] = HL-60, 72 h, read-out: cell viability (survival rate), HL-60, drug 10 μM, 72 hours, WST-1, OD450 nm
[17] = read-out: cell viability (survival rate), MCF7, drug 10 μM, 72 hours, WST-1, OD450 nm
[18] = 72 h, read-out: cell viability (survival rate), TSGH, drug 10 μM, 72 hours, WST-1, OD450 nm
[19] = 72 h, read-out: cell viability (survival rate), HeLa, drug 10 μM, 72 hours, WST-1, OD450 nm
[20] = A549, 72 h, read-out: cell viability (survival rate), A549, drug 10 μM, 72 hours, WST-1, OD450 nm
[21] = 72 h, read-out: cell viability (survival rate), AGS, drug 10 μM, 72 hours, WST-1, OD450 nm
[22] = HepG2, 72 h, read-out: cell viability (survival rate), HepG2, drug 10 μM, 72 hours, WST-1, OD450 nm
[23] = MKN-45, 72 h, read-out: cell viability (survival rate), MKN-45, drug 10 μM, 72 hours, WST-1, OD450 nm
[24] = drug 10 μM, 72 hours, WST-1, OD450 nm

Molecule | inhibition effect on different cancer cell lines (cancer cell lines) | viability at 10 µM [4] [%] | viability at 10 µM [1, 13] [%] | viability at 10 µM [2, 14] [%] | viability at 10 µM [3, 15] [%] | viability at 10 µM [5, 16] [%] | viability at 10 µM [6, 17] [%] | viability at 10 µM [7, 18] [%] | viability at 10 µM [8, 19] [%] | viability at 10 µM [9, 20] [%] | viability at 10 µM [10, 21] [%] | viability at 10 µM [11, 22] [%] | viability at 10 µM [12, 23] [%] | other results
Cc1cc(-n2c(=O)[nH]c(=O)n(C)c2=O)ccc1Oc1ccc(SC(F)(F)F)cc1 [toltrazuril] | significant inhibition effect | 61.9 | – | – | – | – | – | – | – | – | – | – | – | viability at 10 µM ([1]; 72 h, drug 10 μM, 72 hours, WST-1, OD450 nm, read-out: cell viability (survival rate), PC3): 30.3%; viability at 10 µM ([2]; A-375, 72 h, drug 10 μM, 72 hours, WST-1, OD450 nm, read-out: cell viability (survival rate), A375): 27.7%; viability at 10 µM ([3]; NCI-H1650, 72 h, drug 10 μM, 72 hours, WST-1, OD450 nm, read-out: cell viability (survival rate), H1650): 70.9%; viability at 10 µM ([5]; HL-60, 72 h, drug 10 μM, 72 hours, WST-1, OD450 nm, read-out: cell viability (survival rate), HL-60): 73.1%; viability at 10 µM ([6]; drug 10 μM, 72 hours, WST-1, OD450 nm, read-out: cell viability (survival rate), MCF7): 67.4%; viability at 10 µM ([7]; 72 h, drug 10 μM, 72 hours, WST-1, OD450 nm, read-out: cell viability (survival rate), TSGH): 34.8%; viability at 10 µM ([8]; 72 h, drug 10 μM, 72 hours, WST-1, OD450 nm, read-out: cell viability (survival rate), HeLa): 70.1%; viability at 10 µM ([9]; A549, 72 h, drug 10 μM, 72 hours, WST-1, OD450 nm, read-out: cell viability (survival rate), A549): 61.2%; viability at 10 µM ([10]; 72 h, drug 10 μM, 72 hours, WST-1, OD450 nm, read-out: cell viability (survival rate), AGS): 26.3%; viability at 10 µM ([11]; HepG2, 72 h, drug 10 μM, 72 hours, WST-1, OD450 nm, read-out: cell viability (survival rate), HepG2): 62.2%
O=C(N[C@H](CO)[C@H](O)c1ccc([N+](=O)[O-])cc1)C(Cl)Cl [Chloramphenicol (Chloromycetin), Chloramphenicol] | significant inhibition effect | – | 120 | 114 | 75.6 | 105 | 89.1 | 83.5 | 85 | 96.3 | 90.6 | 93.6 | 66.8 | –
CC(C)(C)C(=O)C(Oc1ccc(Cl)cc1)n1ccnc1 (stereo not drawn) [Climbazole] | significant inhibition effect | – | – | – | – | – | – | – | – | – | – | – | – | viability at 10 µM ([1]; drug 10 μM, 72 hours, WST-1, OD450 nm, read-out: cell viability (survival rate), PC3): 99.6%; viability at 10 µM ([2]; A-375, drug 10 μM, 72 hours, WST-1, OD450 nm, read-out: cell viability (survival rate), A375): 70.6%; viability at 10 µM ([3]; NCI-H1650, drug 10 μM, 72 hours, WST-1, OD450 nm, read-out: cell viability (survival rate), H1650): 84.2%; viability at 10 µM ([5]; HL-60, drug 10 μM, 72 hours, WST-1, OD450 nm, read-out: cell viability (survival rate), HL-60): 111%; viability at 10 µM ([7]; drug 10 μM, 72 hours, WST-1, OD450 nm, read-out: cell viability (survival rate), TSGH): 102%; viability at 10 µM ([8]; drug 10 μM, 72 hours, WST-1, OD450 nm, read-out: cell viability (survival rate), HeLa): 94%; viability at 10 µM ([9]; A549, drug 10 μM, 72 hours, WST-1, OD450 nm, read-out: cell viability (survival rate), A549): 72.7%; viability at 10 µM ([10]; drug 10 μM, 72 hours, WST-1, OD450 nm, read-out: cell viability (survival rate), AGS): 93.3%; viability at 10 µM ([11]; HepG2, drug 10 μM, 72 hours, WST-1, OD450 nm, read-out: cell viability (survival rate), HepG2): 94.4%; viability at 10 µM ([12]; MKN-45, drug 10 μM, 72 hours, WST-1, OD450 nm, read-out: cell viability (survival rate), MKN-45): 97.7%
CCN1CCN(C(=O)N[C@@H](C(=O)N[C@@H]2C(=O)N3C(C(=O)O)=C(CSc4nnnn4C)CS[C@H]23)c2ccc(O)cc2)C(=O)C1=O [Cefoperazone (Cefobid), Cefoperazone] | significant inhibition effect | 105 | 104 | 90 | 98.4 | 111 | 50.1 | 60.3 | 91.7 | 76.5 | 98.6 | – | 51.6 | –
Cc1ccnc(NS(=O)(=O)c2ccc(N)cc2)n1 [Sulfamerazine] | significant inhibition effect | 99.6 | 78.4 | 80.4 | 108 | 105 | 79.8 | 90 | 92.3 | 103 | 87.9 | – | 87.4 | –
CC[C@H]1OC(=O)[C@H](C)[C@@H](O[C@H]2C[C@@](C)(OC)[C@@H](O)[C@H](C)O2)[C@H](C)[C@@H](O[C@@H]2O[C@H](C)C[C@H](N(C)C)[C@H]2O)[C@](C)(O)C[C@@H](C)C(=O)[C@H](C)[C@@H](O)[C@]1(C)O [Erythromycin (E-Mycin), Erythromycin] | significant inhibition effect | 85.5 | 86 | – | 90.4 | 111 | 45.2 | 42.6 | 93 | 63.8 | 27.7 | 93.5 | 53.2 | –
Caspofungin acetate | significant inhibition effect | – | – | – | – | – | – | – | – | – | – | – | – | cell viability (survival rate), PC3 [1, 24]: 59.4; cell viability (survival rate), A375 [2, 24]: 70.5; cell viability (survival rate), H1650 [3, 24]: 37.1; cell viability (survival rate), HL-60 [5, 24]: 124.4; cell viability (survival rate), TSGH [7, 24]: 123.7; cell viability (survival rate), A549 [9, 24]: 78.4; cell viability (survival rate), AGS [10, 24]: 94.2; cell viability (survival rate), HepG2 [11, 24]: 95.3; cell viability (survival rate), MKN-45 [12, 24]: 36.4
OC(Cn1cncn1)(Cn1cncn1)c1ccc(F)cc1F [Fluconazole] | significant inhibition effect | 102 | 97.7 | 76.9 | 45.3 | 106 | – | 66.1 | 79.2 | 125 | 50.2 | 97.4 | 76.2 | –
O=c1[nH]c(=O)n([C@H]2C[C@H](O)[C@@H](CO)O2)cc1I [Idoxuridine] | significant inhibition effect | 72.7 | 57.8 | 81.5 | 82.8 | 96.1 | 47.3 | 88 | – | 58.5 | 68.7 | 122 | 80.8 | –
NC[C@@H]1O[C@H](O[C@H]2[C@@H](O)[C@H](O[C@@H]3[C@@H](O)[C@H](N)C[C@H](N)[C@H]3O[C@H]3O[C@H](CO)[C@@H](O)[C@H](O)[C@H]3N)O[C@@H]2CO)[C@H](N)[C@@H](O)[C@@H]1O [Paromomycin Sulfate] | significant inhibition effect | 67.1 | 146 | 91.4 | 99 | 87.1 | 112 | 106 | 96.2 | 78.2 | 80.2 | – | 92.1 | –
COc1c(N2C[C@@H]3CCCN[C@@H]3C2)c(F)cc2c(=O)c(C(=O)O)cn(C3CC3)c12 [Moxifloxacin hydrochloride] | significant inhibition effect | 102 | 69.1 | 94 | 70.9 | 97.1 | 90.3 | 75.7 | 92 | 95.5 | 77.1 | – | 89 | –
